Measurements published in patent EP0322133A1, “Quinazoline derivatives” (SmithKline Beecham Intercredit B.V., priority 1987, dated 1989).
Structures can show the parent of a compound that is named as a salt.

Test system: pentagastrin stimulated gastric acid secretion
Assay: Rat lumen perfused stomach (modified Ghosh and Schild procedure)
Type: in vivo
Settings: i.v. administration; for inhibition at 10 µmol/kg: iv, 10µmole/kg, read-out: Rat G.S. % inhibition @ 10µmole/kg
Text: Using a modification of the procedure described by Ghosh and Schild (Br. J. Pharmacology, 13, 54, 1958), the compounds of the following Examples were found on i.v. administration at a concentration of 10µmole/kg to cause an inhibition of pentagastrin stimulated gastric acid secretion as indicated in the following Table.

Row | Compound | inhibition at 10 µmol/kg [%] | Rat G.S. % inhibition @ 10µmole/kg [%]
1 | COc1cccc2c(Nc3ccccc3C)nc(N(C)c3ccccc3)nc12 [Example 21, 2-(N-methylphenylamino)-4-(2-methylphenylamino)-8-methoxyquinazoline] | 37 | 
2 | Cc1cc(O)ccc1Nc1nc(N(C)c2ccccc2)c2ccccc2n1 [Example 30, 2-[(4-hydroxy-2-methylphenyl)amino]-4-(N-methylphenylamino) quinazoline hydrochloride] | 23 | 
3 | Cc1ccccc1CNc1nc(N(C)c2ccccc2)c2ccccc2n1 [Example 31, 2-(2-methylbenzylamino)-4-(N-methylphenylamino)quinazoline hydrochloride] | 8 | 
4 | Cc1ccccc1Nc1nc(N)nc2ccccc12 [Example 7, 2-amino-4-(2-methylphenylamino)quinazoline] | 20 | 
5 | CNc1nc(Nc2ccccc2C)c2cccc(OC)c2n1 [Example 13, 2-methylamino-8-methoxy-4-(2-methylphenylamino)quinazoline] | 20 | 
6 | CN(c1ccccc1)c1nc(N(C)c2ccccc2)c2ccccc2n1 [Example 20, 2,4-Bis-(N-methylphenylamino)quinazoline hydrochloride] | 72 | 
7 | COc1ccc(Nc2nc(N)nc3c(OC)cccc23)c(C)c1 [Example 3, 2-amino-8-methoxy-4-(2-methyl-4-methoxyphenylamino)quinazoline] | 16 | 
8 | COc1cccc2c(Nc3ccccc3C)nc(N3CCCC3)nc12 [Example 15, 2-pyrrolidino-8-methoxy-4-(2-methylphenylamino)quinazoline] | 31 | 
9 | COc1ccccc1Nc1nc(N)nc2c(OC)cccc12 [Example 18, 2-amino-8-methoxy-4-(2-methoxyphenylamino)quinazoline] | 12 | 
10 | COc1cccc2c(Nc3ccccc3C)nc(N)nc12 [Example 1, 2-amino-8-methoxy-4-(2-methylphenylamino)quinazoline] | 60 | 
11 | CN(c1ccccc1)c1nc(Nc2ccccc2)nc2ccccc12 [Example 27, 2-phenylamino-4-(N-methylphenylamino)quinazoline hydrochloride] | 71 | 
12 | COc1cccc2c(Nc3ccccc3C)nc(N(C)C)nc12 [Example 5, 2-dimethylamino-8-methoxy-4-(2-methylphenylamino)quinazoline] | 37 | 
13 | COc1cccc2c(N(C)c3ccccc3)nc(N)nc12 [Example 29, 2-amino-4-(N-methylphenylamino)-8-methoxyquinazoline hydrochloride] | 13 | 
14 | Cc1ccccc1Nc1nc(N(C)c2ccccc2)nc2ccccc12 [Example 22, 2-(N-methylphenylamino)-4-(2-methylphenylamino)quinazoline hydrochloride] | 27 | 
15 | Cc1ccccc1CNc1nc(N)nc2ccccc12 [Example 25, 2-amino-4-(2-methylbenzylamino)quinazoline] | 24 | 
16 | Cc1cc(F)ccc1Nc1nc(N(C)c2ccccc2)c2ccccc2n1 [Example 32, 2-[(2-methyl-4-fluorophenyl)amino]-4-(N-methylphenylamino)quinazoline hydrochloride] | 96 | 
17 | COc1cccc2c(N(C)c3ccccc3)nc(Nc3ccccc3C)nc12 [Example 24, 4-(N-methylphenylamino)-2-(2-methylphenylamino)-8-methoxyquinazoline] | 97 | 
18 | COc1cccc2c(NCc3ccccc3)nc(N)nc12 [Example 2, 2-amino-8-methoxy-4-benzylaminoquinazoline] | 25 | 
19 | Cc1ccccc1Nc1nc(N)nc2c(C)cccc12 [Example 6, 2-amino-8-methyl-4-(2-methylphenylamino)quinazoline] | 48 | 
20 | Cc1ccccc1Nc1nc(N2CCCC2)nc2ccccc12 [Example 8, 2-pyrrolidino-4-(2-methylphenylamino)quinazoline] | 17 | 
21 | Cc1ccccc1Nc1nc(N(C)c2ccccc2)c2ccccc2n1 [Example 26, 2-(2-methylphenylamino)-4-(N-methylphenylamino)quinazoline hydrochloride] | 79 | 
22 | COc1cccc2c(NCc3ccccc3C)nc(N)nc12 [Example 4, 2-amino-8-methoxy-4-(2-methylbenzylamino)quinazoline] | 37 | 
23 | 2-phenylethylamino-4-(2-methylphenylamino)quinazoline [Example 16] |  | 31
24 | CCc1ccc2nc(N)nc(Nc3ccccc3C)c2c1 [Example 11, 2-amino-4-(2-methylphenylamino)-6-ethylquinazoline] | 28 | 
